Measured values reported in PubChem BioAssay AID1963873 (Molecular Pharmacology Branch, DTP, NCI, 2024).

Test system: 276233-004-R-J1-PDC KRAS spheroids with HUVEC/MSC, viability
Assay: Anticancer human tumor 276233-004-R-J1-PDC patient-derived colon adenocarcinoma cell line growth inhibition [KRAS2]
Conditions: for IC50: curve of first compound; for viability, T/C: stronger effect = lower value
In short: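 KRAS-mutant tumor cells were grown as spheroids with HUVEC endothelial cells and human MSCs as stroma. Targeted agents were tested alone and with KRAS pathway inhibitors. Doses started at or near clinical Cmax, or 10 microM, descending half-log.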

[1] = second compound 0.1 µM, first compound 0.000316 µM
[2] = second compound 0.1 µM, first compound 0.001 µM
[3] = second compound 0.1 µM, first compound 0.00316 µM
[4] = second compound 0.1 µM, first compound 0.01 µM
[5] = second compound 0.1 µM, first compound 0.0316 µM
[6] = second compound 0.316 µM, first compound 0.000316 µM
[7] = second compound 0.316 µM, first compound 0.001 µM
[8] = second compound 0.316 µM, first compound 0.00316 µM
[9] = second compound 0.316 µM, first compound 0.01 µM
[10] = second compound 0.316 µM, first compound 0.0316 µM
[11] = second compound 1 µM, first compound 0.000316 µM
[12] = second compound 1 µM, first compound 0.001 µM
[13] = second compound 1 µM, first compound 0.00316 µM
[14] = second compound 1 µM, first compound 0.01 µM
[15] = second compound 1 µM, first compound 0.0316 µM
[16] = second compound 3.16 µM, first compound 0.000316 µM
[17] = second compound 3.16 µM, first compound 0.001 µM
[18] = second compound 3.16 µM, first compound 0.00316 µM
[19] = second compound 3.16 µM, first compound 0.01 µM
[20] = second compound 3.16 µM, first compound 0.0316 µM
[21] = second compound 10 µM, first compound 0.01 µM
[22] = second compound 10 µM, first compound 0.0316 µM
[23] = second compound 0.1 µM, first compound 0.1 µM
[24] = second compound 0.316 µM, first compound 0.1 µM
[25] = second compound 1 µM, first compound 0.1 µM
[26] = second compound 3.16 µM, first compound 0.1 µM
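Note: cells exposed to agents for seven days before viability read.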
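Throughout, for viability, T/C: 100% = DMSO vehicle control wells and lower values mean fewer viable cells.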

CC(=O)Nc1cccc(-n2c(=O)n(C3CC3)c(=O)c3c(Nc4ccc(I)cc4F)n(C)c(=O)c(C)c32)c1 + COc1cc2nc(C)nc(NC(C)c3cc(N)cc(C(F)(F)F)c3)c2cc1OC1CCOC1
IC50 (second compound 0.1 µM): 5.58 nM | IC50 (second compound 0.316 µM): 4.05 nM | IC50 (second compound 1 µM): 2.77 nM | IC50 (second compound 3.16 µM): 1.8 nM | IC50 (second compound 10 µM): < 0.1 nM | viability, T/C (second compound 0.1 µM, first compound 0.0001 µM): 86% | viability, T/C [1]: 88.2% | viability, T/C [2]: 75.2% | viability, T/C [3]: 63% | viability, T/C [4]: 37.4% | viability, T/C [5]: 17% | viability, T/C (second compound 0.316 µM, first compound 0.0001 µM): 88.8% | viability, T/C [6]: 79.2% | viability, T/C [7]: 65.1% | viability, T/C [8]: 54.3% | viability, T/C [9]: 38.4% | viability, T/C [10]: 23% | viability, T/C (second compound 1 µM, first compound 0.0001 µM): 95.2% | viability, T/C [11]: 72.6% | viability, T/C [12]: 69.7% | viability, T/C [13]: 44.7% | viability, T/C [14]: 34.3% | viability, T/C [15]: 12.3% | viability, T/C (second compound 3.16 µM, first compound 0.0001 µM): 80.2% | viability, T/C [16]: 76.4% | viability, T/C [17]: 59.4% | viability, T/C [18]: 39.7% | viability, T/C [19]: 21.6% | viability, T/C [20]: 8.22% | viability, T/C (second compound 10 µM, first compound 0.0001 µM): 26.6% | viability, T/C (second compound 10 µM, first compound 0.000316 µM): 21.4% | viability, T/C (second compound 10 µM, first compound 0.001 µM): 21.7% | viability, T/C (second compound 10 µM, first compound 0.00316 µM): 14% | viability, T/C [21]: 15.2% | viability, T/C [22]: 6.73%

CN(C)C/C=C/C(=O)Nc1cc2c(Nc3ccc(F)c(Cl)c3)ncnc2cc1O[C@H]1CCOC1 + C=CC(=O)N1CCN(c2nc(OCC3CCCN3C)nc3c2CCN(c2cccc4cccc(C)c24)C3)CC1CC#N
IC50 (second compound 0.0316 µM): > 100 nM | IC50 (second compound 0.1 µM): > 100 nM | IC50 (second compound 0.316 µM): > 100 nM | IC50 (second compound 1 µM): > 100 nM | IC50 (second compound 3.16 µM): 0.902 nM | viability, T/C (second compound 0.0316 µM, first compound 0.000316 µM): 112% | viability, T/C (second compound 0.0316 µM, first compound 0.001 µM): 114% | viability, T/C (second compound 0.0316 µM, first compound 0.00316 µM): 91.3% | viability, T/C (second compound 0.0316 µM, first compound 0.01 µM): 102% | viability, T/C (second compound 0.0316 µM, first compound 0.0316 µM): 97.4% | viability, T/C (second compound 0.0316 µM, first compound 0.1 µM): 86.3% | viability, T/C [1]: 116% | viability, T/C [2]: 93.8% | viability, T/C [3]: 91.3% | viability, T/C [4]: 85% | viability, T/C [5]: 88% | viability, T/C [23]: 85.7% | viability, T/C [6]: 87% | viability, T/C [7]: 110% | viability, T/C [8]: 91.9% | viability, T/C [9]: 78.3% | viability, T/C [10]: 81.5% | viability, T/C [24]: 72.2% | viability, T/C [11]: 84.8% | viability, T/C [12]: 78.8% | viability, T/C [13]: 70.5% | viability, T/C [14]: 83.6% | viability, T/C [15]: 84.2% | viability, T/C [25]: 78.7% | viability, T/C [16]: 67.5% | viability, T/C [17]: 52.7% | viability, T/C [18]: 37.8% | viability, T/C [19]: 27.6% | viability, T/C [20]: 53.2% | viability, T/C [26]: 47.7%

CC1COCCN1c1cc(-c2ccnn2C)c2ccnc(-c3ccn[nH]3)c2n1 (stereo not given) + C=CC(=O)N1CCN(c2nc(=O)n(-c3c(C)ccnc3C(C)C)c3nc(-c4c(O)cccc4F)c(F)cc23)C(C)C1
IC50 (second compound 0.1 µM): > 3160 nM | IC50 (second compound 0.316 µM): > 3160 nM | IC50 (second compound 1 µM): > 3160 nM | IC50 (second compound 3.16 µM): > 3160 nM | IC50 (second compound 10 µM): 1000 nM | viability, T/C [4]: 112% | viability, T/C [5]: 104% | viability, T/C [23]: 88.4% | viability, T/C (second compound 0.1 µM, first compound 0.316 µM): 109% | viability, T/C (second compound 0.1 µM, first compound 1 µM): 63.1% | viability, T/C (second compound 0.1 µM, first compound 3.16 µM): 54.8% | viability, T/C [9]: 96.3% | viability, T/C [10]: 96.2% | viability, T/C [24]: 97.1% | viability, T/C (second compound 0.316 µM, first compound 0.316 µM): 77.6% | viability, T/C (second compound 0.316 µM, first compound 1 µM): 74.5% | viability, T/C (second compound 0.316 µM, first compound 3.16 µM): 55.1% | viability, T/C [14]: 96% | viability, T/C [15]: 105% | viability, T/C [25]: 84.6% | viability, T/C (second compound 1 µM, first compound 0.316 µM): 76.6% | viability, T/C (second compound 1 µM, first compound 1 µM): 72.4% | viability, T/C (second compound 1 µM, first compound 3.16 µM): 61.7% | viability, T/C [19]: 114% | viability, T/C [20]: 110% | viability, T/C [26]: 78.9% | viability, T/C (second compound 3.16 µM, first compound 0.316 µM): 79.5% | viability, T/C (second compound 3.16 µM, first compound 1 µM): 61.7% | viability, T/C (second compound 3.16 µM, first compound 3.16 µM): 71% | viability, T/C [21]: 66% | viability, T/C [22]: 62.9% | viability, T/C (second compound 10 µM, first compound 0.1 µM): 74.2% | viability, T/C (second compound 10 µM, first compound 0.316 µM): 43.8% | viability, T/C (second compound 10 µM, first compound 1 µM): 51.2% | viability, T/C (second compound 10 µM, first compound 3.16 µM): 58.7%
